Molecular target: T1, human GPR17 receptor (Homo sapiens, UniProt Q13304)
T1 construct: host or cells: HEK-293
Assay: Calcium mobilization functional assay (Fluo-8, FLIPR TETRA) in HEK-293 hGPR17 (Gα-q assay)
Assay type: cell-based
Settings: antagonism of MDL29,951 (~EC80) induced Ca2+ signal; cell line (HEK-293 hGPR17 or HEK-293 Suchi5 hGPR17) not given
How it was run: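 Fluo-8-loaded HEK-293 hGPR17 cells (60 min dye loading, room temperature) were preincubated with compound for twenty minutes, then challenged with agonist MDL29,951 at ~EC80, 500 nM. Intracellular calcium release via Gα-q was recorded as FLIPR fluorescence for a further 2 minutes; compounds tested in duplicate.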

T1 sequence (Q13304 whole entry): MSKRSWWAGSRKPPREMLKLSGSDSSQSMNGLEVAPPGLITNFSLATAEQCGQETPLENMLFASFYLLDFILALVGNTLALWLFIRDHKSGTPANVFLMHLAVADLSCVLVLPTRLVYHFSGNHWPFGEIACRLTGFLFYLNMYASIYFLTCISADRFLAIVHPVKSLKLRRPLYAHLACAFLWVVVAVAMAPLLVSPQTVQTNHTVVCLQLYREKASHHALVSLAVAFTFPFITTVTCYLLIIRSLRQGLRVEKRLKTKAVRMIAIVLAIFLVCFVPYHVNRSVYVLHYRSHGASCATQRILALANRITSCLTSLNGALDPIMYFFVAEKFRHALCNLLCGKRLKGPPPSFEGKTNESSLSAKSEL

SMILES	IC50
O=S(=O)(Nc1cc(F)c(C(F)(F)F)cc1F)c1c[nH]c(-c2cccc(F)c2)c1 [Cpd 114, N-[2,5-difluoro-4-(trifluoromethyl)phenyl]-5-(3-fluorophenyl)-1H-pyrrole-3-sulfonamide]	0.5 to 5 µM
O=S(=O)(Nc1ccc(OCCF)cc1F)c1c[nH]c(-c2ccccc2F)c1 [Cpd 115, N-[2-fluoro-4-(2-fluoroethoxy)phenyl]-5-(2-fluorophenyl)-1H-pyrrole-3-sulfonamide]	5 to 50 µM
COc1nc(OC(F)F)c(F)cc1NS(=O)(=O)c1c[nH]c(-c2ccccc2F)c1 [Cpd 116, N-[6-(difluoromethoxy)-5-fluoro-2-methoxy-3-pyridyl]-5-(2-fluorophenyl)-1H-pyrrole-3-sulfonamide]	< 0.5 µM
COc1ccc(F)c(-c2cc(S(=O)(=O)Nc3cc(F)c(C(F)(F)F)cc3F)c[nH]2)c1 [Cpd 117, N-[2,5-difluoro-4-(trifluoromethyl)phenyl]-5-(2-fluoro-5-methoxy-phenyl)-1H-pyrrole-3-sulfonamide]	0.5 to 5 µM
Cc1ccccc1-c1cc(S(=O)(=O)Nc2cc(F)c(C(F)(F)F)cc2F)c[nH]1 [Cpd 118, N-[2,5-difluoro-4-(trifluoromethyl)phenyl]-5-(o-tolyl)-1H-pyrrole-3-sulfonamide]	0.5 to 5 µM
O=S(=O)(Nc1cc(F)c(C(F)(F)F)cc1F)c1c[nH]c(-c2c(F)cccc2F)c1 [Cpd 119, 5-(2,6-difluorophenyl)-N-[2,5-difluoro-4-(trifluoromethyl)phenyl]-1H-pyrrole-3-sulfonamide]	< 0.5 µM
O=S(=O)(Nc1ccc(F)cc1F)c1c[nH]c(-c2cccc(F)c2)c1 [Cpd 120, N-(2,4-difluorophenyl)-5-(3-fluorophenyl)-1H-pyrrole-3-sulfonamide]	5 to 50 µM
O=S(=O)(Nc1ccc(F)cc1F)c1c[nH]c(-c2ccccn2)c1 [Cpd 122, N-(2,4-difluorophenyl)-5-(2-pyridyl)-1H-pyrrole-3-sulfonamide]	5 to 50 µM
O=S(=O)(Nc1ccc(C(F)(F)F)cc1F)c1c[nH]c(-c2ccccn2)c1 [Cpd 123, N-[2-fluoro-4-(trifluoromethyl)phenyl]-5-(2-pyridyl)-1H-pyrrole-3-sulfonamide]	0.5 to 5 µM
O=S(=O)(Nc1cc(F)c(C(F)(F)F)cc1F)c1c[nH]c(-c2ccccn2)c1 [Cpd 124, N-[2,5-difluoro-4-(trifluoromethyl)phenyl]-5-(2-pyridyl)-1H-pyrrole-3-sulfonamide]	< 0.5 µM
O=S(=O)(Nc1cccc(F)c1)c1c[nH]c(-c2ccccn2)c1 [Cpd 125, N-(3-fluorophenyl)-5-(2-pyridyl)-1H-pyrrole-3-sulfonamide]	5 to 50 µM
Cc1nc(Cl)ccc1NS(=O)(=O)c1c[nH]c(-c2ccccc2)c1 [Cpd 126, N-(6-chloro-2-methyl-3-pyridyl)-5-phenyl-1H-pyrrole-3-sulfonamide]	0.5 to 5 µM
Cc1ccc(NS(=O)(=O)c2c[nH]c(-c3ccccc3)c2)c(Cl)n1 [Cpd 127, N-(2-chloro-6-methyl-3-pyridyl)-5-phenyl-1H-pyrrole-3-sulfonamide]	5 to 50 µM
COc1nc(C)ccc1NS(=O)(=O)c1c[nH]c(-c2ccccc2)c1 [Cpd 128, N-(2-methoxy-6-methyl-3-pyridyl)-5-phenyl-1H-pyrrole-3-sulfonamide]	5 to 50 µM
Cc1ccnc(C)c1NS(=O)(=O)c1c[nH]c(-c2ccccc2)c1 [Cpd 129, N-(2,4-dimethyl-3-pyridyl)-5-phenyl-1H-pyrrole-3-sulfonamide]	0.5 to 5 µM
COCCOc1ccc(NS(=O)(=O)c2c[nH]c(-c3ccccc3F)c2)c(F)c1 [Cpd 130, N-[2-fluoro-4-(2-methoxyethoxy)phenyl]-5-(2-fluorophenyl)-1H-pyrrole-3-sulfonamide]	5 to 50 µM
O=S(=O)(Nc1cc(F)c(F)cc1F)c1c[nH]c(-c2c(F)cccc2F)c1 [Cpd 131, 5-(2,6-difluorophenyl)-N-(2,4,5-trifluorophenyl)-1H-pyrrole-3-sulfonamide]	0.5 to 5 µM
O=S(=O)(Nc1cc(F)c(C(F)(F)F)cc1F)c1c[nH]c(C2CCCC2)c1 [Cpd 132, 5-cyclopentyl-N-[2,5-difluoro-4-(trifluoromethyl)phenyl]-1H-pyrrole-3-sulfonamide]	0.5 to 5 µM
O=S(=O)(Nc1ncc(F)cc1F)c1c[nH]c(-c2ccccc2F)c1 [Cpd 133, N-(3,5-difluoro-2-pyridyl)-5-(2-fluorophenyl)-1H-pyrrole-3-sulfonamide]	5 to 50 µM
COc1cc(Cl)cnc1NS(=O)(=O)c1c[nH]c(-c2ccccc2)c1 [Cpd 134, N-(5-chloro-3-methoxy-2-pyridyl)-5-phenyl-1H-pyrrole-3-sulfonamide]	0.5 to 5 µM
Cc1nc(C(F)(F)F)ccc1NS(=O)(=O)c1c[nH]c(-c2ccccc2)c1 [Cpd 135, N-[2-methyl-6-(trifluoromethyl)-3-pyridyl]-5-phenyl-1H-pyrrole-3-sulfonamide]	0.5 to 5 µM
Cc1cnc(NS(=O)(=O)c2c[nH]c(-c3ccccc3)c2)c(F)c1 [Cpd 136, N-(3-fluoro-5-methyl-2-pyridyl)-5-phenyl-1H-pyrrole-3-sulfonamide]	0.5 to 5 µM

SMILES	IC50
O=S(=O)(Nc1cc(F)c(F)cc1F)c1c[nH]c(-c2ccccc2)c1 [Cpd 137, 5-phenyl-N-(2,4,5-trifluorophenyl)-1H-pyrrole-3-sulfonamide]	0.5 to 5 µM
O=S(=O)(Nc1ccc(C(F)(F)F)cn1)c1c[nH]c(-c2ccccc2)c1 [Cpd 138, 5-phenyl-N-[5-(trifluoromethyl)-2-pyridyl]-1H-pyrrole-3-sulfonamide]	5 to 50 µM
O=S(=O)(Nc1cc(C(F)(F)F)ccn1)c1c[nH]c(-c2ccccc2)c1 [Cpd 139, 5-phenyl-N-[4-(trifluoromethyl)-2-pyridyl]-1H-pyrrole-3-sulfonamide]	0.5 to 5 µM
O=S(=O)(Nc1ncc(C(F)(F)F)cc1F)c1c[nH]c(-c2ccccc2)c1 [Cpd 140, N-[3-fluoro-5-(trifluoromethyl)-2-pyridyl]-5-phenyl-1H-pyrrole-3-sulfonamide]	0.5 to 5 µM
O=S(=O)(Nc1cccc2c1OC(F)(F)O2)c1c[nH]c(-c2ccccc2)c1 [Cpd 141, N-(2,2-difluoro-1,3-benzodioxol-4-yl)-5-phenyl-1H-pyrrole-3-sulfonamide]	0.5 to 5 µM
O=S(=O)(Nc1cnc(Cl)cc1F)c1c[nH]c(-c2ccccc2F)c1 [Cpd 142, N-(6-chloro-4-fluoro-3-pyridyl)-5-(2-fluorophenyl)-1H-pyrrole-3-sulfonamide]	0.5 to 5 µM
O=S(=O)(Nc1ccc(OC(F)(F)F)cc1F)c1c[nH]c(-c2ccccc2)c1 [Cpd 143, N-[2-fluoro-4-(trifluoromethoxy)phenyl]-5-phenyl-1H-pyrrole-3-sulfonamide]	0.5 to 5 µM
COc1cc(C(F)(F)F)ccc1NS(=O)(=O)c1c[nH]c(-c2ccccc2)c1 [Cpd 144, N-[2-methoxy-4-(trifluoromethyl)phenyl]-5-phenyl-1H-pyrrole-3-sulfonamide]	5 to 50 µM
O=S(=O)(Nc1cc(F)c(Cl)cc1F)c1c[nH]c(-c2ccccc2)c1 [Cpd 145, N-(4-chloro-2,5-difluoro-phenyl)-5-phenyl-1H-pyrrole-3-sulfonamide]	0.5 to 5 µM
O=S(=O)(Nc1cc(Cl)ncc1F)c1c[nH]c(-c2ccccc2)c1 [Cpd 146, N-(2-chloro-5-fluoro-4-pyridyl)-5-phenyl-1H-pyrrole-3-sulfonamide]	5 to 50 µM
COc1nc(C(F)(F)F)ccc1NS(=O)(=O)c1c[nH]c(-c2ccccc2)c1 [Cpd 147, N-[2-methoxy-6-(trifluoromethyl)-3-pyridyl]-5-phenyl-1H-pyrrole-3-sulfonamide]	0.5 to 5 µM
O=S(=O)(Nc1cc(F)c(C(F)(F)F)cc1F)c1c[nH]c(-c2ncccc2F)c1 [Cpd 148, N-(2,5-difluoro-4-(trifluoromethyl)phenyl)-5-(3-fluoropyridin-2-yl)-1H-pyrrole-3-sulfonamide]	< 0.5 µM
O=S(=O)(Nc1cccc2c1OCO2)c1c[nH]c(-c2ccccn2)c1 [Cpd 149, N-(1,3-benzodioxol-4-yl)-5-(2-pyridyl)-1H-pyrrole-3-sulfonamide]	0.5 to 5 µM
O=S(=O)(Nc1cc(F)c(C(F)(F)F)cc1F)c1c[nH]c(-c2ncccn2)c1 [Cpd 150, N-[2,5-difluoro-4-(trifluoromethyl)phenyl]-5-pyrimidin-2-yl-1H-pyrrole-3-sulfonamide]	0.5 to 5 µM
O=S(=O)(Nc1ccc(F)cc1F)c1c[nH]cc1Cc1ccccc1 [Cpd 151, 4-benzyl-N-(2,4-difluorophenyl)-1H-pyrrole-3-sulfonamide]	5 to 50 µM
O=S(=O)(Nc1ccc(C(F)(F)F)nc1)c1c[nH]cc1Cc1ccccc1 [Cpd 152, 4-benzyl-N-[6-(trifluoromethyl)-3-pyridyl]-1H-pyrrole-3-sulfonamide]	5 to 50 µM
O=S(=O)(Nc1ccc(Cl)cc1F)c1c[nH]cc1Cc1ccccc1 [Cpd 153, 4-benzyl-N-(4-chloro-2-fluoro-phenyl)-1H-pyrrole-3-sulfonamide]	5 to 50 µM
COc1cc(C(F)(F)F)ccc1NS(=O)(=O)c1c[nH]c(-c2ccccn2)c1 [Cpd 154, N-[2-methoxy-4-(trifluoromethyl)phenyl]-5-(2-pyridyl)-1H-pyrrole-3-sulfonamide]	0.5 to 5 µM
Cc1cccnc1-c1cc(S(=O)(=O)Nc2cc(F)c(C(F)(F)F)cc2F)c[nH]1 [Cpd 155, N-[2,5-difluoro-4-(trifluoromethyl)phenyl]-5-(3-methyl-2-pyridyl)-1H-pyrrole-3-sulfonamide]	< 0.5 µM
Cn1ccnc1-c1cc(S(=O)(=O)Nc2cc(F)c(C(F)(F)F)cc2F)c[nH]1 [Cpd 156, N-[2,5-difluoro-4-(trifluoromethyl)phenyl]-5-(1-methylimidazol-2-yl)-1H-pyrrole-3-sulfonamide]	0.5 to 5 µM
O=S(=O)(Nc1ccc(OC(F)(F)F)cc1F)c1c[nH]c(-c2ccccn2)c1 [Cpd 157, N-[2-fluoro-4-(trifluoromethoxy)phenyl]-5-(2-pyridyl)-1H-pyrrole-3-sulfonamide]	0.5 to 5 µM
